Assays:
[1] = tested on: CD19 CAR T cells stimulated with nalm6 cells; assay: CAR T cell proliferation after 96 hours with rapamycin; type: cell-based; settings: nalm6 stimulation, CD4+ and CD8+ subsets
Method: The following study investigated the effects of rapamycin on CAR T cells and tumor cell lines. In the first part of the experiment, cytokine release assays were performed. […] In the same experiments, T cell proliferation was assessed to determine whether rapamycin affects the expansion of CAR T cells. […] In the last part of the study, rapamycin was directly applied to two types of tumor cell lines, PC3 and LNCAP, to assess its impact on tumor cell proliferation. […] It can decrease the proliferation of tumor cells, aligning with clinical observations.
The bar graphs depict the proliferation rates of CAR T cells, specifically CD4+ and CD8+ subsets, after 96 hours of stimulation with CD19 antigen and varying concentrations of rapamycin. […] CD8: The right graph indicates the percentage of proliferating CD8+ CAR T cells under the same treatment conditions as CD4+.

[2] = taken orally at a dose of 2 mg/day; read-out: maximum blood concentration (Cmax); cited from earlier work

In the case of `CO[C@H]1C[C@@H]2CC[C@@H](C)[C@@](O)(O2)C(=O)C(=O)N2CCCC[C@H]2C(=O)O[C@H]([C@H](C)C[C@@H]2CC[C@@H](O)[C@H](OC)C2)CC(=O)[C@H](C)/C=C(\C)[C@@H](O)[C@@H](OC)C(=O)[C@H](C)C[C@H](C)/C=C/C=C/C=C/1C` [rapamycin, Rapamycin], the “CAR T cell proliferation” value [1] is listed as “not inhibited” and the Cmax [2] is listed as 16 nM.
